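Values below derive from 48-hour exposures of cells grown in 96-well plates, with endpoints linearly interpolated between the two concentrations bracketing the appropriate inhibition level. Definition used: TGI = concentration required for complete inhibition of growth.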
Assays:
Test in all cases: NCI anticancer screen, dose series, 48 h
[1] = test system: A549 NSCLC
[2] = test system: OVCAR-8 ovarian
[3] = test system: HT29 colon
[4] = test system: SW-620 colon
[5] = test system: HCT-15 colon
[6] = test system: K-562 leukemia
[7] = test system: DU-145 prostate
[8] = test system: SK-MEL-5 melanoma
[9] = test system: SF-539 CNS
[10] = test system: BT-549 breast

O=c1c2ccccc2nc2n1NC(c1c(Cl)cccc1Cl)N2c1cccc(Cl)c1 (stereo not given)
TGI [1]: 22.2 µM
TGI [2]: 12 µM
TGI [3]: > 100 µM
TGI [4]: 14.3 µM
TGI [5]: > 100 µM
TGI [6]: > 100 µM
TGI [7]: > 100 µM
TGI [8]: 65.5 µM
TGI [9]: 31 µM
TGI [10]: > 100 µM

C[C@]12CC[C@@H]3c4ccc(O)cc4CC[C@H]3[C@@H]1C/C(=C\c1ccc([N+](=O)[O-])cc1)C2=O
TGI [1]: > 100 µM
TGI [2]: > 100 µM
TGI [3]: 37.2 µM
TGI [4]: > 100 µM
TGI [5]: > 100 µM
TGI [6]: > 100 µM
TGI [7]: > 100 µM
TGI [8]: > 100 µM
TGI [9]: 75 µM
TGI [10]: > 100 µM

COc1c(CC=C(C)C)c(O)c(C(CC(C)C)c2c(O)c(C(C)=O)c(O)c3c2OC(C(C)(C)O)C3)c(O)c1C(C)=O (stereo not given)
TGI [1]: > 12.5 µM
TGI [2]: > 12.5 µM
TGI [3]: > 12.5 µM
TGI [4]: > 12.5 µM
TGI [5]: > 12.5 µM
TGI [6]: > 12.5 µM
TGI [7]: > 12.5 µM
TGI [8]: 8.24 µM
TGI [9]: > 12.5 µM
TGI [10]: 10.6 µM

COc1ccc2[nH]c(CCNC(=O)c3cc([N+](=O)[O-])cc([N+](=O)[O-])c3)cc2c1
TGI [1]: > 100 µM
TGI [2]: > 100 µM
TGI [3]: > 100 µM
TGI [4]: > 100 µM
TGI [5]: > 100 µM
TGI [6]: > 100 µM
TGI [7]: > 100 µM
TGI [8]: > 100 µM
TGI [9]: > 100 µM
TGI [10]: > 100 µM
